Reference: US20260335279A1, “METHODS OF TREATING ISCHEMIA-REPERFUSION INJURIES” (University of Cincinnati, priority 2022, published 2026)

Experiments:
Glut4 = Glut4 mRNA after I/R; assay type: in vivo, mouse; settings: ML-264 treatment; vs I/R group treated with vehicle
Description: (§1) The myocardial ischemia/reperfusion surgical protocol was applied as follows. Mice were anesthetized with 2% isoflurane inhalation until anesthesia was achieved. The animals' body temperature was maintained at 37 °C throughout the surgical procedure using a heating pad. A tracheal tube was placed via tracheal intubation and the respiration rate was set at 150 strokes/min with a tidal volume of 200 μL, using Minivent ventilator for mice (Model 845, Harvard Apparatus). A 1.2 cm incision was made over the left chest. After retraction of the pectoral major and minor muscles, the fourth intercostal space was exposed. […] The mouse was then monitored during the recovery period, which was generally completed within 3 to 5 minutes. […]
(§2) Total RNA was purified from heart tissue using the TRIzol reagent according to the instructions of the manufacturer (ThermoFischer Scientific, Cat. No.: 15596018). cDNA synthesis was performed using the Applied Biosystems High Capacity cDNA Reverse Transcription Kit (ThermoFischer Scientific, Cat. No.: 4368814) from 500 ng RNA, which had been treated with DNAase I (ThermoFischer Scientific, Cat. No.: 18068015). Quantitative real-time PCR was performed with the SYBR Select Master Mix (ThermoFischer Scientific, Cat. No.: 4472903) using the manufacturer's recommendations. […]

[1] = tested on: myocardial ischemia-reperfusion injury in mice; experiment: 2D echocardiography (cardiac function) in murine myocardial ischemia-reperfusion injury; assay type: in vivo, mouse (C57BL/6); settings: 30 min ischemia
Description: (§3) Cardiac function was assessed by transthoracic echocardiography using the VisualSonics Vevo F2 system (VisualSonics, Toronto, ON). Sedation was induced by 3% isoflurane and maintained at 0.5% isoflurane during the procedure, during which the animals were placed on a heated table under a lamp at approximately 37 °C. Parasternal long axis (PSLAX) and short axis (SAX) images were recorded and then analyzed on a separate workstation with VevoLab software (Vevo 2100, v1.6, Visualsonic, Toronto, Canada). From the M-mode images, left ventricular cavity size for systole and diastole (LV dia;s, LV dia;d, LV Vol;s and LV Vol;d) were measured. Heart rate (HR), stroke volume (SV), and the echocardiographic calculation for fractional shortening (FS), ejection fraction (EF) and cardiac output (CO) were obtained using the Vevo software. Treatment and control groups were analyzed on the same day by the same technician in order to minimize variation. For VevoStrain analysis, B-mode images of 300 frames at greater than 200 frames/second were used.
The myocardial ischemia/reperfusion surgical protocol was applied as follows. Mice were anesthetized with 2% isoflurane inhalation until anesthesia was achieved. […] The mouse was then monitored during the recovery period, which was generally completed within 3 to 5 minutes. […]

Ugdh = Ugdh levels after I/R; assay type: in vivo, mouse; settings: among the three groups, ML-264 treatment
Description: as §1, §2

cardiac fibrosis in mice = experiment: Masson's Trichrome staining, cardiac fibrosis in chronic model of I/R injury; assay type: in vivo, mouse (C57BL/6); settings: 30 min ischemia, 4 weeks reperfusion; two doses of ML264 at early reperfusion
Description: The myocardial ischemia/reperfusion surgical protocol was applied as follows. Mice were anesthetized with 2% isoflurane inhalation until anesthesia was achieved. The animals' body temperature was maintained at 37 °C throughout the surgical procedure using a heating pad. A tracheal tube was placed via tracheal intubation and the respiration rate was set at 150 strokes/min with a tidal volume of 200 μL, using Minivent ventilator for mice (Model 845, Harvard Apparatus). A 1.2 cm incision was made over the left chest. After retraction of the pectoral major and minor muscles, the fourth intercostal space was exposed. […] The left anterior descending coronary artery (LAD) was then located, sutured, and ligated at a site 3-4 mm distal to the origin of the artery under the left atrium using a 6-0 silk suture. The heart was allowed to stabilize for 15 min and right after, ischemia was induced by tightening the suture against a small piece of polyethylene tube. […] The mouse was then monitored during the recovery period, which was generally completed within 3 to 5 minutes. […]
Tissue sectioning and Masson's Trichrome staining were performed. […] Fibrotic myocardial tissue size was measured as % area with respect to the total slice area in mouse hearts imaged at 0.8×. […]

Col3a1 = Col3a1 mRNA in chronic model of I/R injury (real-time PCR); assay type: in vivo, mouse (C57BL/6); settings: 4 weeks post-I/R; vs IR group treated with vehicle
Description: as §1, §2

[2] = tested on: myocardial ischemia-reperfusion injury in mice; experiment: Speckle tracking echocardiography in murine myocardial ischemia-reperfusion injury; assay type: in vivo, mouse (C57BL/6); settings: 30 min ischemia, 24 h reperfusion; 25 mg/kg/12 h intraperitoneal; vs vehicle
Description: as §3
The myocardial ischemia/reperfusion surgical protocol was applied as follows. Mice were anesthetized with 2% isoflurane inhalation until anesthesia was achieved. The animals' body temperature was maintained at 37 °C throughout the surgical procedure using a heating pad. A tracheal tube was placed via tracheal intubation and the respiration rate was set at 150 strokes/min with a tidal volume of 200 μL, using Minivent ventilator for mice (Model 845, Harvard Apparatus). A 1.2 cm incision was made over the left chest. After retraction of the pectoral major and minor muscles, the fourth intercostal space was exposed. […] The left anterior descending coronary artery (LAD) was then located, sutured, and ligated at a site 3-4 mm distal to the origin of the artery under the left atrium using a 6-0 silk suture. The heart was allowed to stabilize for 15 min and right after, ischemia was induced by tightening the suture against a small piece of polyethylene tube. At the end of the 30-minute ischemia period, the ligature was released for the induction of reperfusion, and then the manual evacuation of air and closure of muscle and skin were performed. The mouse was then monitored during the recovery period, which was generally completed within 3 to 5 minutes. Sustain-released buprenorphine (BupSR, 0.5 mg/kg body weight) was provided by subcutaneous injection. Mice were then left to recover until the end of the reperfusion (2 hours, 12 hours, 24 hours, or 4 weeks). The sham group underwent the same surgical procedure except that the LAD was not occluded.
To explore whether KLF5 inhibition holds therapeutic potential against myocardial I/R injury, WT mice were subjected to 30 minutes of ischemia, followed by 24 hours of reperfusion while being treated with a pharmacological KLF5 inhibitor, namely ML264. ML264 (25 mg/kg/12 h) was dissolved in 10% DMSO, 10% Tween 80, and 80% normal saline, and was administered by intraperitoneal injection in mice.
A first dose of ML264 was administered five minutes before the reopening of the coronary artery, due to the clinical application that this time point holds, as well as previous reports about the importance of this time point regarding the pharmacological possibilities for the cardioprotection against I/R injury. 2D echocardiography was performed after 24 hours of reperfusion.

Q: Which results are given for CN(C(=O)CNC(=O)/C=C/c1cccc(Cl)c1)C1CCS(=O)(=O)CC1 [ML264]?
A: Glut4 mRNA levels (Glut4): significant suppression; ejection fraction (4 weeks) ([1]; 4 weeks reperfusion, two doses of ML264 at early reperfusion, vs IR vehicle): significant preservation; ejection fraction ([1]; 24 h reperfusion, 25 mg/kg/12 h intraperitoneal, first dose 5 min before reopening of coronary artery, vs vehicle): significant preservation; Ugdh levels (Ugdh): no effect; fibrotic scar tissue formation (cardiac fibrosis in mice): significant reduction; mRNA levels of Col3a1 (Col3a1): decreased; global circumferential strain [2]: significant increase; lateral wall circumferential strain [2]: significant increase; lateral wall circumferential strain rate [2]: significant increase; lateral wall radial strain [2]: significant increase; lateral wall radial strain rate [2]: significant increase
